# Source: article PMC9502272, “A Metabolomics Approach for Predicting OATP1B-Type Transporter-Mediated Drug–Drug Interaction Liabilities” (Pharmaceutics, 2022)
# Counter-ions that a name gives are not always drawn.
# Target: T1, Oatp1b2 (Mus musculus, UniProt Q9JJL3)
# T1 sequence (Q9JJL3 1-689): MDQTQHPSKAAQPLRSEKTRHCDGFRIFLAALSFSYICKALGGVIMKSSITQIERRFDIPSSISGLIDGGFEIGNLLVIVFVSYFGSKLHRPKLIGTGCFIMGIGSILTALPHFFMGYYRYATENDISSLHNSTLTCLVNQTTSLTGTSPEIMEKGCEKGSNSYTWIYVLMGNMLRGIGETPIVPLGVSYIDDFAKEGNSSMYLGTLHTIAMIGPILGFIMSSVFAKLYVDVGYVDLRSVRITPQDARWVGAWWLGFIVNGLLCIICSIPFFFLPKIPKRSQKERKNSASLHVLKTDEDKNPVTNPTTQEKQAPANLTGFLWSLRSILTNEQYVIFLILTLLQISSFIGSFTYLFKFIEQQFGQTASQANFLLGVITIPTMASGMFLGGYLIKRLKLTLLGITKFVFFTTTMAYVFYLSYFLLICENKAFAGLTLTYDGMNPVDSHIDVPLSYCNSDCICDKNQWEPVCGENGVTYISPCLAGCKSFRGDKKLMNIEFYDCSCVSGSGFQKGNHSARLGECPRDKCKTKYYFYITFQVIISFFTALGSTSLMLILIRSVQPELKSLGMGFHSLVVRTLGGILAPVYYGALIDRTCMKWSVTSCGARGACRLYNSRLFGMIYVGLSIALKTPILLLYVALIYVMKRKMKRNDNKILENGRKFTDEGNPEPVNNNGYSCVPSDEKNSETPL
# Assay: Untargeted metabolomics of plasma from untreated wild-type and Oatp1b2(−/−) mice
# Conditions: for Fold of Change KO/WT: plasma of untreated Oatp1b2-deficient (KO) vs wild-type (WT) mice, semi-quantitative, positive = higher in KO, n = 6 per group; for Mean value KO: plasma of untreated Oatp1b2-deficient mice; for Mean value KO / Mean value WT: raw area counts rescaled to median = 1; for Mean value WT: plasma of untreated wild-type mice
Molecule,Fold of Change KO/WT,Mean value KO,Mean value WT
CC(C)CCC[C@@H](C)[C@H]1CC[C@H]2[C@@H]3CC=C4C[C@@H](OS(=O)(=O)O)CC[C@]4(C)[C@H]3CC[C@]12C [cholesterol sulfate],1.23,1.08,.875
CCCCCC/C=C\CCCCCCCC(=O)OC[C@@H](O)COP(=O)([O-])OCC[N+](C)(C)C [1-palmitoleoyl-GPC (16:1)],1.97,1.31,.666
O=C(O)C1CCCCN1 (stereo not shown) [pipecolate],1.12,1.05,.938
CCCCC/C=C\C/C=C\CCCCCCCC(=O)O[C@H](CO/C=C\CCCCCCCCCCCCCC)COP(=O)(O)OCCN [1-(1-enyl-palmitoyl)-2-linoleoyl-GPE (P-16:0/18:2)],1.34,1.16,.862
CC(CCC[C@@H](C)[C@H]1CC[C@H]2[C@@H]3[C@H](O)CC4=CC(=O)CC[C@]4(C)[C@H]3CC[C@]12C)C(=O)O (stereo partly drawn) [7-alpha-hydroxy-3-oxo-4-cholestenoate (7-Hoca)],1.27,1.20,.944
CC(=O)N[C@@H](CC[S+](C)[O-])C(=O)O (stereo partly shown) [N-acetylmethionine sulfoxide],1.40,1.31,.931
N[C@@H](CCC(=O)NCC(=O)O)C(=O)O [gamma-glutamylglycine],1.23,1.17,.950
C[N+](C)(C)CC(CC(=O)[O-])OC(=O)CCCCCCCCCCCCCCCCC(=O)O (stereo not shown) [octadecanedioylcarnitine (C18-DC)],1.16,1.00,.860
CC(O)(CCO)CC(=O)O (stereo not shown) [mevalonate],1.24,1.15,.925
(N(1) + N(8))-acetylspermidine,–,–,.931
CCCCCCC=CCCCCCCCC(=O)OC(CC(=O)[O-])C[N+](C)(C)C (stereo not shown) [palmitoleoylcarnitine (C16:1)],1.63,1.54,.943
Cc1ncc(CO)c(C(=O)O)c1O [pyridoxate],1.34,1.21,.902
pregnenediol disulfate (C21H34O8S2),2.14,1.16,.540
taurocholenate sulfate,–,1.08,.838
C[C@H](CCC(=O)O)[C@H]1CC[C@H]2[C@@H]3[C@H](O)[C@H](O)[C@@H]4C[C@H](O)CC[C@]4(C)[C@H]3CC[C@]12C [hyocholate],5.64,1.41,.251
CC/C=C\C/C=C\C/C=C\C/C=C\C/C=C\C/C=C\CCC(=O)O[C@H](COC(=O)CCCCCCC/C=C\CCCCCCCC)COP(=O)([O-])OCC[N+](C)(C)C [1-oleoyl-2-docosahexaenoyl-GPC (18:1/22:6)],1.34,1.17,.874
"CCCCCCCCCCCCCCCC(=O)OC[C@H](COP(=O)(O)OCCN)OC(=O)CCCCCCCCCCCCCCC [1,2-dipalmitoyl-GPE (16:0/16:0)]",2.02,1.34,.664
CC(=O)Nc1ccn([C@@H]2O[C@H](CO)[C@@H](O)[C@H]2O)c(=O)n1 [N4-acetylcytidine],1.36,1.12,.819
C[C@H](CCC(=O)O)[C@H]1CC[C@H]2[C@@H]3C[C@H](O)[C@@H]4C[C@@H](O)CC[C@]4(C)[C@H]3CC[C@]12C [isohyodeoxycholate],2.46,0.940,.382
CC(C(=O)O)c1ccc(O)cc1 (stereo not shown) [2-(4-hydroxyphenyl)propionate],1.30,1.16,.895
CCCC(=O)NCC(=O)O [butyrylglycine],1.72,1.28,.744
CCCCC/C=C\C/C=C\C/C=C\C/C=C\CCCC(=O)O[C@H](COC(=O)CCCCCCC/C=C\C/C=C\CCCCC)COP(=O)([O-])OCC[N+](C)(C)C [1-linoleoyl-2-arachidonoyl-GPC (18:2/20:4n6)],1.36,1.15,.846
"sphingomyelin (d18:1/14:0, d16:1/16:0)",–,–,.930

Molecule,Fold of Change KO/WT,Mean value KO,Mean value WT
chenodeoxycholic acid sulfate (1),6.41,1.02,.160
NCCS(=O)O [hypotaurine],1.28,1.14,.887
O=C(O)CC[C@H](NC(=O)Cc1ccccc1)C(=O)O [phenylacetylglutamate],1.46,1.24,.850
CCCCC/C=C\C/C=C\CCCCCCCC(=O)O[C@H](CC(=O)[O-])C[N+](C)(C)C [linoleoylcarnitine (C18:2)],1.62,1.36,.838
CCCCCCCCCCCCCCCC(=O)OC[C@@H](O)COP(=O)([O-])OCC[N+](C)(C)C [1-palmitoyl-GPC (16:0)],1.29,1.12,.868
Cc1ncc(CO)c(CN)c1O [pyridoxamine],1.77,1.42,.805
C[C@H](CCC(=O)O)[C@H]1CC[C@H]2[C@@H]3[C@@H](O)C[C@@H]4C[C@H](O)CC[C@]4(C)[C@H]3CC[C@]12C [ursodeoxycholate],4.07,2.16,.530
CCCCC(=O)NCC(=O)O [valerylglycine],1.53,1.28,.838
CC/C=C\C/C=C\C/C=C\CCCCCCCC(=O)OC[C@@H](O)COP(=O)([O-])OCC[N+](C)(C)C [1-linolenoyl-GPC (18:3)],2.13,1.41,.661
O=C1CC(C(=O)O)C(C(=O)O)O1 (stereo not shown) [isocitric lactone],1.22,1.08,.884
Nc1ncnc2c1ncn2C1OC(COP(=O)(O)O)C(O)C1O (stereo not shown) [adenosine 5'-monophosphate (AMP)],1.12,1.04,.927
CCCCC/C=C\C/C=C\C/C=C\C/C=C\CCCC(=O)O[C@H](CO/C=C\CCCCCCCCCCCCCC)COP(=O)(O)OCCN [1-(1-enyl-palmitoyl)-2-arachidonoyl-GPE (P-16:0/20:4)],1.34,1.13,.839
"sphingomyelin (d17:1/14:0, d16:1/15:0)",1.32,1.02,.769
equol glucuronide,1.90,1.35,.709
O=S(=O)(O)Oc1ccc(O)cc1 [hydroquinone sulfate],1.55,1.32,.849
"C=CC1=C(C)/C(=C/c2[nH]c(Cc3[nH]c(/C=C4\NC(=O)C(C)=C4C=C)c(C)c3CCC(=O)O)c(CCC(=O)O)c2C)NC1=O [bilirubin (Z,Z)]",5.25,1.48,.282
CCCCCCCCCCCCCCCCCC(=O)OC[C@@H](O)COP(=O)(O)OCCN [1-stearoyl-GPE (18:0)],1.34,1.16,.867
CC(C)C(O)C(=O)O (stereo not drawn) [alpha-hydroxyisovalerate],1.68,1.43,.850
COP(=O)(O)O [methylphosphate],1.27,1.08,.848
nonadecenamide (19:1),1.39,1.27,.917
Cc1ccc(OS(=O)(=O)O)cc1 [p-cresol sulfate],9.29,4.66,.501
CCCCCC/C=C\CCCCCCCC(=O)O[C@H](CO)COP(=O)([O-])OCC[N+](C)(C)C [2-palmitoleoyl-GPC (16:1)],1.95,1.36,.696
octadecadienedioate (C18:2-DC),3.48,1.88,.540
